From patent US20220088016A1, “CANCER TREATMENT USING MULTI-TARGETED KINASE INHIBITOR IN COMBINATION OF PROTEIN KINASE BIOMARKERS” (ZHEJIANG CROWNMAB BIOTECH CO. LTD., priority 2019, published 2022)

Legend:
Assay in all cases: Kinase profiling
Format in all cases: binding
Conditions in all cases: read-out: % Ctrl @ 1000 nM
EGFR (S752-I759del) = EGFR (S752-I759del) (Homo sapiens, UniProt P00533, DEL752-759)
RIPK4 = RIPK4 (Homo sapiens, UniProt P57078)
MINK = target: T1, MINK (Homo sapiens, UniProt Q8N4C8)
T1 construct: T7 phage fusion (stated for most kinases of the panel only); made in house; host or cells: T7 phage in E. coli (BL21-derived) or HEK-293 cells

CAMK2A = CAMK2A (Homo sapiens, UniProt Q9UQM7)
PLK3 = PLK3 (Homo sapiens, UniProt Q9H4B4)
Sequence of PLK3 (Q9H4B4 whole entry): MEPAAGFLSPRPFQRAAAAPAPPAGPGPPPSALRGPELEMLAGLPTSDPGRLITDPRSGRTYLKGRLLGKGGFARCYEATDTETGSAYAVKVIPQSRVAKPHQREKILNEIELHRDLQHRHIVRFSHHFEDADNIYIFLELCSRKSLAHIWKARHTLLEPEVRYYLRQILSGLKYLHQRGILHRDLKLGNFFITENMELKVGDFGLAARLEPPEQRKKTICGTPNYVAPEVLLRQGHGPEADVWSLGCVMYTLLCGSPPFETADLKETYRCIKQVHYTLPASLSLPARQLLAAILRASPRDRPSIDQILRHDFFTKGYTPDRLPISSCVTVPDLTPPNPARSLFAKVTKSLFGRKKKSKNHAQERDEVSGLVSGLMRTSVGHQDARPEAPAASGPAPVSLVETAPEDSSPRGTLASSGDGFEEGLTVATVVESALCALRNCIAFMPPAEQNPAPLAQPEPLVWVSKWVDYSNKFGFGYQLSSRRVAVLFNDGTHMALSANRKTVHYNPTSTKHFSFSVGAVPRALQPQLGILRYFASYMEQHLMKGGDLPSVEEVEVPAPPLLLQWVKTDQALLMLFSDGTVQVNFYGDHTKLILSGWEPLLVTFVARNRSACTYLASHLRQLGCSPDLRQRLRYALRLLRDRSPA

CHEK1 = CHEK1 (Homo sapiens, UniProt O14757)
PIP5K2B = PIP5K2B (Homo sapiens, UniProt P78356)
Sequence of PIP5K2B (P78356 whole entry): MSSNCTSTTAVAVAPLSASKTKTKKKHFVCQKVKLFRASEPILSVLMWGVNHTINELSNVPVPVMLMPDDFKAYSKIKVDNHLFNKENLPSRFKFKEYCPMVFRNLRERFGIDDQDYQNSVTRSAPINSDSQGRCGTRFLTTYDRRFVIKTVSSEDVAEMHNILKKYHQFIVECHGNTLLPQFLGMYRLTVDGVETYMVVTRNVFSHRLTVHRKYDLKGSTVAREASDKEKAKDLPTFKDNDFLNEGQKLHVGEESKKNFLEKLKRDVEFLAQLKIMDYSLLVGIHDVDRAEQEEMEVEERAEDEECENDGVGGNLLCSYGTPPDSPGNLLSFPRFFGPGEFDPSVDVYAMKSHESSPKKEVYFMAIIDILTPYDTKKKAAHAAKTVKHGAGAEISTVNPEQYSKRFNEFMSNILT

AKT3 = AKT3 (Homo sapiens, UniProt Q9Y243)
RIOK3 = RIOK3 (Homo sapiens, UniProt O14730)
EPHA3 = EPHA3 (Homo sapiens, UniProt P29320)
Sequence of EPHA3 (P29320 21-983): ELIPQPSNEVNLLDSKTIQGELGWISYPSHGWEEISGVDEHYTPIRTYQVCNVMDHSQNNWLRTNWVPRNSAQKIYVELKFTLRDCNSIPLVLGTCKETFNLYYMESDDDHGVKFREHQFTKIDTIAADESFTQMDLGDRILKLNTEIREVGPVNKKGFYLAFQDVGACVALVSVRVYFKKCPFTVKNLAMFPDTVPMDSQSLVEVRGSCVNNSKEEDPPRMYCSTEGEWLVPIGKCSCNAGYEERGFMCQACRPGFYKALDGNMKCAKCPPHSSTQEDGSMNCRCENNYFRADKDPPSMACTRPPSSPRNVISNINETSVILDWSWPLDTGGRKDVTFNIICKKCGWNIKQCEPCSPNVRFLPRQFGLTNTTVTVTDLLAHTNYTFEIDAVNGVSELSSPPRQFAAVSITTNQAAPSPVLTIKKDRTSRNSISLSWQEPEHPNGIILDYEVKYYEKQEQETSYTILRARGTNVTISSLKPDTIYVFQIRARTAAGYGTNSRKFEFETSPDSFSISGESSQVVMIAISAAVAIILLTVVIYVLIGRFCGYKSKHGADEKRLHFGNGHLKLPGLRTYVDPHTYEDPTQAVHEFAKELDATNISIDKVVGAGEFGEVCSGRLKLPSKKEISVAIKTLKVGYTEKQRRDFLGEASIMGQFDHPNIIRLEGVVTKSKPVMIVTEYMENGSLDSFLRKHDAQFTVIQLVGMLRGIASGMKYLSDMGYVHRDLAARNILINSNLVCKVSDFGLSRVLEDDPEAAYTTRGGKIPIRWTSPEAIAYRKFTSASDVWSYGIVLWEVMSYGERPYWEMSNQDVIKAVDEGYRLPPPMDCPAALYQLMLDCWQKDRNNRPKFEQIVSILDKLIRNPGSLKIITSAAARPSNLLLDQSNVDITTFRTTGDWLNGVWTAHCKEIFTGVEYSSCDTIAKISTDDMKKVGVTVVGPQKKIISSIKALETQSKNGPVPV

PRKCD = PRKCD (Homo sapiens, UniProt Q05655)
Sequence of PRKCD (Q05655 whole entry): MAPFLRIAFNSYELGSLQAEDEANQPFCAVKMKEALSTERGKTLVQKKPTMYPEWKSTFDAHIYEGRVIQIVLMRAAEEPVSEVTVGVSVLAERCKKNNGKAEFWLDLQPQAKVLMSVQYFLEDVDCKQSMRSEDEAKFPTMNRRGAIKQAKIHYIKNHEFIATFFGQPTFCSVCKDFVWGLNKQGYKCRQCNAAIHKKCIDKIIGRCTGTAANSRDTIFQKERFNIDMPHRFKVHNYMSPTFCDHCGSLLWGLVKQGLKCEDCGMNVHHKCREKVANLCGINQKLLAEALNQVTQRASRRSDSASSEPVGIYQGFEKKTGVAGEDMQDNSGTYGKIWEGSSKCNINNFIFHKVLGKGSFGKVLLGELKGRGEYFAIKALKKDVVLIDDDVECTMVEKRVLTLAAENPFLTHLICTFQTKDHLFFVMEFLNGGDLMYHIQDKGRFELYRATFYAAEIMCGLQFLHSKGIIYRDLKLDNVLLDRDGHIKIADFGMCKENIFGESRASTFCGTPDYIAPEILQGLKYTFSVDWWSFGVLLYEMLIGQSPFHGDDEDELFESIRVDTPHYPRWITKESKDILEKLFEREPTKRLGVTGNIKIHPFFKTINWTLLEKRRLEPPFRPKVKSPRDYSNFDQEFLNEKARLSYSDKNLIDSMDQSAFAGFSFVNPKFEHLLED

HCK = HCK (Homo sapiens, UniProt P08631)
Sequence of HCK (P08631 whole entry): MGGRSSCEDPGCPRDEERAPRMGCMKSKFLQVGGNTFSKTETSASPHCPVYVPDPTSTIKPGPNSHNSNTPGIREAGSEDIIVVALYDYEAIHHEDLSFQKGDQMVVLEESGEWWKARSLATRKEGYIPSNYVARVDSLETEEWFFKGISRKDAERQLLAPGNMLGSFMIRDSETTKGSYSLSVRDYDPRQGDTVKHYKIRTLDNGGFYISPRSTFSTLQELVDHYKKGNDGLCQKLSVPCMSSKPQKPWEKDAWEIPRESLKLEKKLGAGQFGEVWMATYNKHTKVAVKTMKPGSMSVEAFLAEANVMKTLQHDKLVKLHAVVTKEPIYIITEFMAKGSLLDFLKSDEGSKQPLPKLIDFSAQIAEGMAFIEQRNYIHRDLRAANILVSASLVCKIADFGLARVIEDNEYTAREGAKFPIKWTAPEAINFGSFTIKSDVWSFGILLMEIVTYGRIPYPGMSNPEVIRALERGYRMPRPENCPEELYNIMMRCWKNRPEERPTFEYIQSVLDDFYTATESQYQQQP

TNK1 = TNK1 (Homo sapiens, UniProt Q13470)
HUNK = HUNK (Homo sapiens, UniProt P57058)
MYLK = target: T2, MYLK (Homo sapiens, UniProt Q15746)
T2 construct: T7 phage fusion (said for most assays); made in house

PDPK1 = PDPK1 (Homo sapiens, UniProt O15530)
RIOK1 = RIOK1 (Homo sapiens, UniProt Q9BRS2)
MEK4 = target: T3, MEK4 (Homo sapiens, UniProt P45985)
T3 construct: T7 phage fusion (stated for most kinases of the panel only); made in house; host or cells: T7 phage in E. coli (BL21-derived) or HEK-293 cells
T3 sequence (P45985 whole entry, the tested form may be a part): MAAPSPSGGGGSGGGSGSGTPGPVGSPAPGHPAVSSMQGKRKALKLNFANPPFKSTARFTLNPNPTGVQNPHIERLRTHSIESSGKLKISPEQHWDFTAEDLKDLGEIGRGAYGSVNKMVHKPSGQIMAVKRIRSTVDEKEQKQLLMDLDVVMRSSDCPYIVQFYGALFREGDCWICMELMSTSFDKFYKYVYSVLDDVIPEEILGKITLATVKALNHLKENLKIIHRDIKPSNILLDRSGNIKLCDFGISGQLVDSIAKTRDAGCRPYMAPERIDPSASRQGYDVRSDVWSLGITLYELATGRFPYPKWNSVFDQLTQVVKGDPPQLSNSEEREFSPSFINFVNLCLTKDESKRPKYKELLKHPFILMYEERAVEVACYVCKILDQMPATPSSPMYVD

MRCKA = target: T4, MRCKA (Homo sapiens, UniProt Q5VT25)
T4 construct: T7 phage fusion (stated for most kinases of the panel only); made in house; host or cells: T7 phage in E. coli (BL21-derived) or HEK-293 cells

EPHA1 = EPHA1 (Homo sapiens, UniProt P21709)
EPHA8 = EPHA8 (Homo sapiens, UniProt P29322)
MARK2 = MARK2 (Homo sapiens, UniProt Q7KZI7)
PRKR = PRKR (Homo sapiens, UniProt P19525)
MYLK2 = target: T5, MYLK2 (Homo sapiens, UniProt Q9H1R3)
T5 construct: T7 phage fusion (said for most assays); made in house

SgK110 = SgK110 (Homo sapiens, UniProt P0C264)
YANK1 = YANK1 (Homo sapiens, UniProt Q8WU08)
ICK = ICK (Homo sapiens, UniProt Q9UPZ9)
EGFR (L861Q) = EGFR (L861Q) (Homo sapiens, UniProt P00533, L861Q)
TSSK1B = TSSK1B (Homo sapiens, UniProt Q9BXA7)
KIT (D816H) = KIT (D816H) (Homo sapiens, UniProt P10721, D816H)
AMPK-alpha2 = AMPK-alpha2 (Homo sapiens, UniProt P54646)
ALK (L1196M) = ALK (L1196M) (Homo sapiens, UniProt Q9UM73, L1196M)
PKAC-alpha = PKAC-alpha (Homo sapiens, UniProt P17612)
AXL = AXL (Homo sapiens, UniProt P30530)
ASK1 = ASK1 (Homo sapiens, UniProt Q99683)
Sequence of ASK1 (Q99683 whole entry): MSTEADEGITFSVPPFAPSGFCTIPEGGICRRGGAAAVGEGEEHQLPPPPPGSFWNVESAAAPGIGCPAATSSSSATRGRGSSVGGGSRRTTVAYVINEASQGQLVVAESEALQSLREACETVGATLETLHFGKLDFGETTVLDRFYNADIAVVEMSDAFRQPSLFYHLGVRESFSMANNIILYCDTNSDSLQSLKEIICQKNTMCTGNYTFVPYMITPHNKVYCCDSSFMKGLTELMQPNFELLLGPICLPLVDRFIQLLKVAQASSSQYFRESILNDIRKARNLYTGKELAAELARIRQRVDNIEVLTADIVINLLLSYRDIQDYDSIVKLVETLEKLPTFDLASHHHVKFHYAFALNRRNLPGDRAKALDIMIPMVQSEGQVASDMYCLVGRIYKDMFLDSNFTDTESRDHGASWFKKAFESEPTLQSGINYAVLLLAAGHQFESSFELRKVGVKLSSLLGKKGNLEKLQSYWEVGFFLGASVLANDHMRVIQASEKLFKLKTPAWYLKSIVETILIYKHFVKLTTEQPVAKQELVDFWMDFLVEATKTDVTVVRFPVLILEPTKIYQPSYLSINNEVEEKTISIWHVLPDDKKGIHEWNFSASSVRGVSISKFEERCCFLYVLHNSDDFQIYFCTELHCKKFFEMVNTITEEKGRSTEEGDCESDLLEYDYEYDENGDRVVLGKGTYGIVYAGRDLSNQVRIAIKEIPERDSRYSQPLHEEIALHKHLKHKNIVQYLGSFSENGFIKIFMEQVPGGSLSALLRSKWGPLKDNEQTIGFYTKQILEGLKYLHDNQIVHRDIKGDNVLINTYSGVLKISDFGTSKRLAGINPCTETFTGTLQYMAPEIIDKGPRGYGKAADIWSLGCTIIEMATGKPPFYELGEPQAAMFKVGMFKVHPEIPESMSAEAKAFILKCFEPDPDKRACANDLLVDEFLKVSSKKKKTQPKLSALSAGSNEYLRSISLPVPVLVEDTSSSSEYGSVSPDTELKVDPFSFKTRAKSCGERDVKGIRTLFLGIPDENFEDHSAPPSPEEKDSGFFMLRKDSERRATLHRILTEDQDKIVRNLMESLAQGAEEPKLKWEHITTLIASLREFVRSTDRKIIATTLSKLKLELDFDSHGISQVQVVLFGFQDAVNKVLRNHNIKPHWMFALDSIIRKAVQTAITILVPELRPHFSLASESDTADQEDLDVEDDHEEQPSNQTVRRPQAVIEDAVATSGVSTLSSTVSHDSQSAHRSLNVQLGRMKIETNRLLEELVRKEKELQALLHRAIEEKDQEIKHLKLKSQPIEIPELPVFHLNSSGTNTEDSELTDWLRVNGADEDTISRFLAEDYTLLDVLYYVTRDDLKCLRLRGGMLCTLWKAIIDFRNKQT

SNARK = SNARK (Homo sapiens, UniProt Q9H093)
PIK3CA (Q546K) = PIK3CA (Q546K) (Homo sapiens, UniProt P42336, Q546K)
MAP3K2 = MAP3K2 (Homo sapiens, UniProt Q9Y2U5)
INSRR = INSRR (Homo sapiens, UniProt P14616)

With `Cc1cc(Oc2cc(NC(=O)C3CC3)ncn2)ccc1NC(=O)Nc1ccc(Cl)c(C(F)(F)F)c1` [CBT-102] the remaining activity at 1 µM (EGFR (S752-I759del)) was 91%, the remaining activity at 1 µM (RIPK4) was 100% and the remaining activity at 1 µM (MINK) was 35%. The remaining activity at 1 µM (CAMK2A) was 88%, the remaining activity at 1 µM (PLK3) was 97% and the remaining activity at 1 µM (CHEK1) was 100%. It also gave a remaining activity at 1 µM (PIP5K2B) of 99%, a remaining activity at 1 µM (AKT3) of 97% and a remaining activity at 1 µM (RIOK3) of 65%. For the same compound, the remaining activity at 1 µM (EPHA3) was 33%, the remaining activity at 1 µM (PRKCD) was 100% and the remaining activity at 1 µM (HCK) was 54%. For the same compound, the remaining activity at 1 µM (TNK1) was 52%, the remaining activity at 1 µM (HUNK) was 68% and the remaining activity at 1 µM (MYLK) was 98%. The remaining activity at 1 µM (PDPK1) was 100%, the remaining activity at 1 µM (RIOK1) was 54% and the remaining activity at 1 µM (MEK4) was 100%. It also gave a remaining activity at 1 µM (MRCKA) of 91%, a remaining activity at 1 µM (EPHA1) of 45% and a remaining activity at 1 µM (EPHA8) of 9.1%. The remaining activity at 1 µM (MARK2) was 76%, the remaining activity at 1 µM (PRKR) was 92% and the remaining activity at 1 µM (MYLK2) was 98%. The remaining activity at 1 µM (SgK110) was 98%, the remaining activity at 1 µM (YANK1) was 98% and the remaining activity at 1 µM (ICK) was 100%. For the same compound, the remaining activity at 1 µM (EGFR (L861Q)) was 56%, the remaining activity at 1 µM (TSSK1B) was 87% and the remaining activity at 1 µM (KIT (D816H)) was 37%. The remaining activity at 1 µM (AMPK-alpha2) was 100%, the remaining activity at 1 µM (ALK (L1196M)) was 94% and the remaining activity at 1 µM (PKAC-alpha) was 97%. For the same compound, the remaining activity at 1 µM (AXL) was 56%, the remaining activity at 1 µM (ASK1) was 91% and the remaining activity at 1 µM (SNARK) was 100%. It also gave a remaining activity at 1 µM (PIK3CA (Q546K)) of 100%, a remaining activity at 1 µM (MAP3K2) of 90% and a remaining activity at 1 µM (INSRR) of 100%.
